Measurements: patent publication US12410164B2, “Heterocyclic compounds and medical use thereof” (FONDAZIONE TELETHON, priority 2018, dated 2025)
“Also recorded” adds a separate entry of the source.

How the values were obtained:
[1] = system: calcium-dependent chloride secretion; test: Short-circuit current in bronchial epithelial cells: UTP-activated, inh-A01-inhibited chloride secretion; type: cell-based, human; conditions: compound 10 μM, activated with UTP
Description: FIG. 3. PP008 corrective activity on primary epithelial cells. (A) The representative plots and (B) the bar chart show the results obtained by treating bronchial epithelial cells from a patient homozygous for the mutation F508del with PP008 (10 μM) in the presence and absence of VX-809 (1 μM). As control, cells were treated for 24 h with vehicle alone (dimethylsufoxide, DMSO) at the same concentration (0.1%) used to add test compounds. […] (C) Results obtained on nasal epithelial cells of a homozygous F508del patient. *, p<0.05; ***, p<0.001.
(§1) The culture and functional study of human primary nasal and bronchial epithelial cells have been described in detail above (Scudieri P, et al. J Physiol. 2012, 590, 6141-6155). Briefly, nasal epithelial cells were taken after informed consent using the “brushing” technique. […] With this mode, the transepithelial potential difference is locked to zero and the resulting current, supplied by the Voltage Clamp is recorded by an AD/DA converter (PowerLab, ADInstruments).

F508del-CFTR = F508del-CFTR (Homo sapiens, UniProt P13569, DEL508-508); test: Transepithelial short-circuit current in primary bronchial epithelial cells of F508del homozygous CF patient; type: cell-based; parameters: endogenous in cells; host or cells: primary bronchial and nasal epithelial cells from CF patients homozygous for F508del
Description: as §1
The cells were grown in such a way as to generate differentiated epithelia on porous supports (Snapwell). […] As a channel-protein able to mediate a chloride ion flux, CFTR activity is detected as a transepithelial ionic current. […]

F508del-CFTR, sequence (P13569 with tags, fused parts or gaps DEL508-508): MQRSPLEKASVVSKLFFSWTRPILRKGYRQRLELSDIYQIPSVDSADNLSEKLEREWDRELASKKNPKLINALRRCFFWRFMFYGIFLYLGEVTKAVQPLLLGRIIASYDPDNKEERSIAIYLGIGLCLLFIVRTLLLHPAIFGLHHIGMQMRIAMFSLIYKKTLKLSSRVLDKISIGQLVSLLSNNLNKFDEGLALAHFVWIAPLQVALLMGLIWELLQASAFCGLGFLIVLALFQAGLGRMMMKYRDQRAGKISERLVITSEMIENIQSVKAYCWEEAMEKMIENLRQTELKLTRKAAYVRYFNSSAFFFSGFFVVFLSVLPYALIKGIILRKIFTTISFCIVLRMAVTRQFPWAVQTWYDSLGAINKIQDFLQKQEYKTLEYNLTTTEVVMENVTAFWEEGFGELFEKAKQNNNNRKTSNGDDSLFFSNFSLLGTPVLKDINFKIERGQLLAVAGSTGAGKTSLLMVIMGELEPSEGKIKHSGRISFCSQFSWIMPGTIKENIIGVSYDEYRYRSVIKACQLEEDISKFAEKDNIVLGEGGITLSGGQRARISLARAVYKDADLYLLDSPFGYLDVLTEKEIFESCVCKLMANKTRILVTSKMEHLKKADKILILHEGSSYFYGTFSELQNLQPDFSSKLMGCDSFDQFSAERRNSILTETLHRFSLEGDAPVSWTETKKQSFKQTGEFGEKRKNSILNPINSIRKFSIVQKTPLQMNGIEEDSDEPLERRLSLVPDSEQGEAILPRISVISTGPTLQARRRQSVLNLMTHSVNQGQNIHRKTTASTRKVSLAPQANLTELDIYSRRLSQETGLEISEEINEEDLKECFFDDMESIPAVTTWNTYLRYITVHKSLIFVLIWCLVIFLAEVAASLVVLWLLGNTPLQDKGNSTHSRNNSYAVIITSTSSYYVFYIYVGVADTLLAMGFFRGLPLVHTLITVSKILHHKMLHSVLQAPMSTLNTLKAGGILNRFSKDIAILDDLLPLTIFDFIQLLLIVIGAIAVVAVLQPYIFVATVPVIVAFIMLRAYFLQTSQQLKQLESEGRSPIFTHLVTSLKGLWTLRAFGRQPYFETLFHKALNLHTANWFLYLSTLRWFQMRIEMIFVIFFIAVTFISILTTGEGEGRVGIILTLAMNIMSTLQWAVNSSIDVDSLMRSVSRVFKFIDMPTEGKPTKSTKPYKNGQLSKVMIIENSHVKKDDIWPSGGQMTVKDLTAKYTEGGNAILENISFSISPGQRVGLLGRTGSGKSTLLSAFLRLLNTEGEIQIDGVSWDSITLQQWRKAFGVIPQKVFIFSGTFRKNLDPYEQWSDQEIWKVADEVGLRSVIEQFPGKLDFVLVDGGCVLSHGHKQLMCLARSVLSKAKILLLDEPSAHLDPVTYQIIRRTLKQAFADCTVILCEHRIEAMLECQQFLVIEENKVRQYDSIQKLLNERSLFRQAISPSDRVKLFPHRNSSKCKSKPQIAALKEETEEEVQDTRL

CCOC(=O)c1c(Br)c2c(n1Cc1ccc(C)cc1)-c1[nH]c(=O)c(S(=O)(=O)c3ccccc3)cc1CC2 [PP008, Ethyl 7-(benzenesulfonyl)-3-bromo-1-[(4-methylphenyl)methyl]-8-oxo-4,5,8,9-tetrahydro-1H-pyrrolo[3,2-h]quinoline-2-carboxylate]
calcium-dependent chloride secretion [1]: does not modify
F508del-CFTR activity (current blocked by inh-172) (F508del-CFTR; compound 10 μM alone, 24 h incubation): significantly increased; also recorded: significant increase in current
F508del-CFTR activity (current blocked by inh-172) of combination (F508del-CFTR; compound 10 μM plus VX-809 1 μM, 24 h): significantly greater than the sum of the effects of the individual correctors
